Assay results as given in US6552010B1 (Genelabs Technologies, Inc., priority 1999, dated 2003).

Experiments:
[1] = Stability of DHEA polymorph preparations under ambient conditions
[2] = Uptake and absorption of DHEA polymorph preparations upon oral administration
SLE patients [3] = assay: Clinical trial: percent responders (weighted average change from baseline, no clinical deterioration); format: in vivo, human; settings: 200 mg DHEA per day orally
Description: (§1) Clinical trial results were analyzed for each group (placebo and DHEA-treated) as a whole (“per-protocol”), as well as broken down into three subgroups: all patients with SLEDAI values greater than 2 (“active SLE”), and patients having SLEDAI values greater than 2 and receiving corticosteroids and/or immunosuppressives (“more severe SLE”).
(§2) Patients received 200 mg DHEA per day, administered orally in capsule form, or with a non-drug capsule (placebo). Mean duration of the treatment for each group was somewhat higher for the placebo group (308.4 days for placebo vs 288.4 days for DHEA, but median durations were almost the identical (362 vs. 359 days, respectively.).
The last three columns of the table show the results of the study for patients experiencing at least one flare during the study.

SLE patients [4] = assay: Clinical trial: responders by window analysis of SLEDAI, SLAM, Patient VAS and KFSS; format: in vivo, human; settings: for Responders (3% window), number of patients / Responders (3% window), percent / Responders (5% window), number of patients / Responders (5% window), percent / Responders (10% window), number of patients / Responders (10% window), percent: 200 mg DHEA per day orally
Description: For each of the disease activity variables (SLEDAI and SLAM) and constitutional symptom variables (Patient VAS and KFSS), the value of interest for each patient is determined as the difference between a pretreatment baseline value, calculated as the mean of two baseline values, taken prior to any treatment with DHEA), and values taken during treatment, calculated as the mean of all values obtained during on-treatment scheduled visits, e.g., 13, 26, 39, and 52 weeks of treatment.
For each of the variables, an improvement in the variable is defined as either (i) no change in the variable or (ii) a decrease in the variable. Thus, for example, an improvement in a baseline SLEDAI score of 5.00 would be any value 5.00 or less. A change in a variable that represents a worsening of the state or condition is any increase in the measured value.
Thus, for a baseline SLEDAI value of 5.0, and a 3% cap, the maximum allowed increase in SLEDAI value, for classification as a 3% responder is 0.15
The mean baseline scores represent the mean of two value determinations made prior to treatment.
Each group, in turn, can be broken down into three subgroups: (I) total patient population (II) all patients with SLEDAI values greater than 2, and (III) patients having SLEDAI values greater than 2 and currently being treated with prednisone (at dose greater than 2 mg/prednisone /day), where the number of patients in each subgroup is indicated by N in the Table 5.
Treatment was with 200 mg DHEA per day, administered orally in capsule form, or with a non-drug capsule (placebo). Mean duration of the treatment for each group was somewhat higher for the placebo group (308 days for placebo vs 288.4 days for DHEA, but median durations were almost the identical (362 vs. 359 days, respectively.).
The three columns in the table represent total of the three subgroups for both the placebo and treatment group. The three rows represent responders in which an improvement (no change or decrease in value) in three the three of the four variables was observed and an increase in the fourth variable of no more than 3% (first row), 5% (second row), and 10% (third row) of the pretreatment baseline value.

SLE patients [5] = assay: Clinical trial: effect of DHEA treatment on SLE flares; format: in vivo, human; settings: for Patients with at least one flare, patients/total / Patients with at least one flare, percent: 200 mg DHEA per day orally
Description: A clinical trial was conducted to determine the effect of DHEA treatment on SLE flares. An SLE flare is a significant new clinical manifestation of the disease (i.e., one that was not previously present in the patient or not previously as severe) and/or a clinical intervention. Table 6 identifies the clinical findings or interventions that were scored as flares in the present study. Any patient having at least one of these finding or interventions was scored as having a flare.
as §1, §2
At about 200 days of treatment, incidence of flare is at least about 5% lower in the treated patients, and from this point on, the difference in flare incidence between the treated and placebo patients grows to at least about 10%.

[6] = Active SLE (SLEDAI > 2 at baseline)
[7] = More Severe SLE (SLEDAI > 2 and receiving corticosteroids and/or immunosuppressives at baseline)
[8] = Group II: All patients with SLEDAI > 2
[9] = Group II: All patients with SLEDAI > 2, N = 132
[10] = Group III: All patients with SLEDAI > 2, Pred > 0
[11] = Group III: All patients with SLEDAI > 2, Pred > 0, N = 73

Q: For `C[C@]12CC[C@H](O)CC1=CC[C@@H]1[C@@H]2CC[C@]2(C)C(=O)CC[C@@H]12` [DHEA form I, dehydroepiandrosterone], which Stability [1] is on record?
A: highly stable under ambient conditions

Q: And the “Uptake by the GI tract” value [2]?
A: good uptake by the GI tract

Q: Which results are given for `C[C@]12CC[C@H](O)CC1=CC[C@@H]1[C@@H]2CC[C@]2(C)C(=O)CC[C@@H]12` [DHEA form II, dehydroepiandrosterone]?
A: Stability [1]: stable under ambient conditions; Rate of absorption [2]: rapid rate of absorption (greater than the form I polymorph); Uptake by the GI tract [2]: good uptake by the GI tract

Q: Which “Responders, patients/total” value (SLE patients [3]; [6]) does the source give for `C[C@]12CC[C@H](O)CC1=CC[C@@H]1[C@@H]2CC[C@]2(C)C(=O)CC[C@@H]12` [DHEA, dehydroepiandrosterone] here?
A: (87/132)

Q: And the “Responders, percent” value (SLE patients [3]; [6])?
A: 66%

Q: What about the “Responders, patients/total” value (SLE patients [3]; [7]) of the same compound?
A: (51/80)

Q: And the “Responders, percent” value (SLE patients [3]; [7])?
A: 64%

Q: What about the “Responders, patients/total” value (SLE patients [3]; Per Protocol population) of the same compound?
A: (99/170)

Q: And the “Responders, percent” value (SLE patients [3]; Per Protocol population)?
A: 58%

Q: And the “Improvement over placebo, responders (3% window)” value (“Improvement … (3% window)” for short) (SLE patients [4]; Group I: All patients)?
A: 39.8%

Q: What about the “Improvement over placebo, responders (5% window)” value (“Improvement … (5% window)” below) (SLE patients [4]; Group I: All patients) of the same compound?
A: 32.1%

Q: What about the “Improvement over placebo, responders (10% window)” value (shortened to “Improvement … (10% window)”) (SLE patients [4]; Group I: All patients) of the same compound?
A: 38.0%

Q: What about the “Responders (3% window), number of patients” value (SLE patients [4]; Group I: All patients, N = 170) of the same compound?
A: 77

Q: What about the “Responders (3% window), percent” value (SLE patients [4]; Group I: All patients, N = 170) of the same compound?
A: 45.3%

Q: What about the “Responders (5% window), number of patients” value (SLE patients [4]; Group I: All patients, N = 170) of the same compound?
A: 79

Q: What about the “Responders (5% window), percent” value (SLE patients [4]; Group I: All patients, N = 170) of the same compound?
A: 46.5%

Q: What about the “Responders (10% window), number of patients” value (SLE patients [4]; Group I: All patients, N = 170) of the same compound?
A: 92

Q: What about the “Responders (10% window), percent” value (SLE patients [4]; Group I: All patients, N = 170) of the same compound?
A: 54.1%

Q: What about the “Improvement … (3% window)” value (SLE patients [4]; [8]) of the same compound?
A: 54.4%

Q: And the “Improvement … (5% window)” value (SLE patients [4]; [8])?
A: 47.1%

Q: And the “Improvement … (10% window)” value (SLE patients [4]; [8])?
A: 51.1%

Q: And the “Responders (3% window), number of patients” value (SLE patients [4]; [9])?
A: 72

Q: What about the “Responders (3% window), percent” value (SLE patients [4]; [9]) of the same compound?
A: 54.5%

Q: What about the “Responders (5% window), number of patients” value (SLE patients [4]; [9]) of the same compound?
A: 73

Q: And the “Responders (5% window), percent” value (SLE patients [4]; [9])?
A: 55.3%

Q: What about the “Responders (10% window), number of patients” value (SLE patients [4]; [9]) of the same compound?
A: 84

Q: What about the “Responders (10% window), percent” value (SLE patients [4]; [9]) of the same compound?
A: 63.6%

Q: And the “Improvement … (3% window)” value (SLE patients [4]; [10])?
A: 64.3%

Q: And the “Improvement … (5% window)” value (SLE patients [4]; [10])?
A: 68.6%

Q: What about the “Improvement … (10% window)” value (SLE patients [4]; [10]) of the same compound?
A: 82.2%

Q: What about the “Responders (3% window), number of patients” value (SLE patients [4]; [11]) of the same compound?
A: 39

Q: And the “Responders (3% window), percent” value (SLE patients [4]; [11])?
A: 53.4%

Q: What about the “Responders (5% window), number of patients” value (SLE patients [4]; [11]) of the same compound?
A: 40

Q: And the “Responders (5% window), percent” value (SLE patients [4]; [11])?
A: 54.8%

Q: What about the “Responders (10% window), number of patients” value (SLE patients [4]; [11]) of the same compound?
A: 45

Q: What about the “Responders (10% window), percent” value (SLE patients [4]; [11]) of the same compound?
A: 61.6%

Q: And the “Patients with at least one flare, patients/total” value (SLE patients [5]; [6])?
A: (31/132)

Q: And the “Patients with at least one flare, percent” value (from here on “Patients … percent”) (SLE patients [5]; [6])?
A: 24%

Q: And the “Time of treatment at which reduction of the risk of flare begins” value (SLE patients [5]; FIG. 1, active SLE patients, compared to the placebo group)?
A: about 85 days

Q: What about the “Incidence of flare lower in treated patients than placebo” value (SLE patients [5]; FIG. 1, at about 200 days of treatment) of the same compound?
A: at least 5%

Q: What about the “Difference in flare incidence between treated and placebo patients” value (SLE patients [5]; FIG. 1, grows to this after about 200 days of treatment) of the same compound?
A: at least 10%

Q: And the “Patients with at least one flare, patients/total” value (SLE patients [5]; [7])?
A: (21/80)

Q: What about the “Patients … percent” value (SLE patients [5]; [7]) of the same compound?
A: 26%

Q: What about the “Patients with at least one flare, patients/total” value (SLE patients [5]; Per Protocol population) of the same compound?
A: (37/170)

Q: What about the “Patients … percent” value (SLE patients [5]; Per Protocol population) of the same compound?
A: 22%

Q: And the “Effect on occurrence of flares” value (SLE patients [5]; Table 8 study, effect increased with severity of disease)?
A: reduced the occurrence of flares
